{"source": "PubChem BioAssay AID743499", "about": "(The Scripps Research Institute Molecular Screening Center, 2014)", "test_system": "Crimean-Congo hemorrhagic fever virus L protein ovarian tumor domain protease (vOTU)", "test": "PubChem AID 743499", "details": "purified CCHFV vOTU, di-Ub K63 fluorescence cleavage, stronger effect = higher value", "note": "Calls of active or inactive are those of the source. No rule for the calls is given here."}
{"smiles": "Cc1ccc(NC2=CC(=O)C(=O)c3ccccc32)cc1", "values": [{"measurement": "inhibition", "setting": "at 12.24 µM", "value": 103, "unit": "%"}]}
{"smiles": "COC(CNC(=O)c1ccc2c3c(onc13)-c1ccccc1C2=O)OC", "values": [{"measurement": "inhibition", "setting": "at 24.19 µM", "value": 46, "unit": "%"}]}
{"smiles": "O=C(OCc1nnc(-c2ccccc2)o1)c1ccc([N+](=O)[O-])s1", "values": [{"measurement": "inhibition", "setting": "at 26.04 µM", "value": 99.5, "unit": "%"}]}
{"smiles": "Cc1ccc2c(c1C)-c1c(ccc(C)c1C)C(=O)C2=O", "values": [{"measurement": "inhibition", "setting": "at 18.9 µM", "value": 55.7, "unit": "%"}]}
{"smiles": "NC1=C(Cl)C(=O)c2ccc(S(N)(=O)=O)cc2C1=O", "values": [{"measurement": "inhibition", "setting": "at 0.39 µM", "value": 50.5, "unit": "%"}]}
{"smiles": "CN(C1=C(NC(=O)c2ccccc2)C(=O)c2ccccc2C1=O)C1CCS(=O)(=O)C1", "note": "(stereo unspecified)", "values": [{"measurement": "inhibition", "setting": "at 19.18 µM", "value": 27.5, "unit": "%"}]}
{"smiles": "O=C(COC(=O)c1ccc([N+](=O)[O-])s1)Nc1ncc(C(F)(F)F)cc1Cl", "values": [{"measurement": "inhibition", "setting": "at 27.79 µM", "value": 68.2, "unit": "%"}]}
{"smiles": "NS(=O)(=O)c1ccc(NC(=O)COC(=O)c2ccc([N+](=O)[O-])s2)cc1", "values": [{"measurement": "inhibition", "setting": "at 29.01 µM", "value": 94.1, "unit": "%"}]}
{"smiles": "Cn1nc(-c2ccccn2)nc2c(=O)n(C)c(=O)nc1-2", "values": [{"measurement": "inhibition", "setting": "at 1.16 µM", "value": 75.7, "unit": "%"}]}
{"smiles": "O=C1Cc2ccccc2C(=O)N1CCc1ccccc1", "values": [{"measurement": "inhibition", "setting": "at 3.02 µM", "value": "11.1% (inactive)"}]}
{"smiles": "O=c1[nH]c(Nc2ccccc2)cc2cc(Br)ccc12", "values": [{"measurement": "inhibition", "setting": "at 1.45 µM", "value": 22, "unit": "%"}]}
{"smiles": "COc1ccccc1NC(=O)COC(=O)c1ccc([N+](=O)[O-])s1", "values": [{"measurement": "inhibition", "setting": "at 35.07 µM", "value": 84.1, "unit": "%"}]}
{"smiles": "CCOC(=O)N=Nc1c2ccccc2c2nc3no[nH]c3nc12", "values": [{"measurement": "inhibition", "setting": "at 7.75 µM", "value": 24.5, "unit": "%"}]}
{"smiles": "O=C(NC1=C(NC2CCS(=O)(=O)C2)C(=O)c2ccccc2C1=O)c1ccccc1", "note": "(stereo unspecified)", "values": [{"measurement": "inhibition", "setting": "at 14.2 µM", "value": 43.9, "unit": "%"}]}
{"smiles": "O=C(NC1=CC(=O)c2ccccc2C1=O)c1ccccc1", "values": [{"measurement": "inhibition", "setting": "at 12.37 µM", "value": 33.4, "unit": "%"}]}
{"smiles": "Cc1ccccc1-c1cc2c(nn1)-c1ccccc1C2=O", "values": [{"measurement": "inhibition", "setting": "at 4.5 µM", "value": "14.8% (inactive)"}]}
{"smiles": "CC1COCC(C)N1C1=C(Cl)C(=O)c2ccccc2C1=O", "note": "(stereo unspecified)", "values": [{"measurement": "inhibition", "setting": "at 14.67 µM", "value": 24.6, "unit": "%"}]}
{"smiles": "CC1(C)C=C2C(=NN(c3ccccc3)C(N)=C2C#N)CO1", "values": [{"measurement": "inhibition", "setting": "at 23.49 µM", "value": 76.2, "unit": "%"}]}
{"smiles": "O=C(/C=C/c1ccc(O)cc1)c1ccc(NC2=C(N3CCCCC3)C(=O)c3ccccc3C2=O)cc1", "values": [{"measurement": "inhibition", "setting": "at 10.17 µM", "value": 38.1, "unit": "%"}]}
{"smiles": "NS(=O)(=O)c1ccc(NC2=CC(=O)C(=O)c3ccccc32)cc1", "values": [{"measurement": "inhibition", "setting": "at 11.51 µM", "value": 44.4, "unit": "%"}]}
{"smiles": "O=C(COC(=O)c1ccc([N+](=O)[O-])s1)Nc1ccc(F)cc1", "values": [{"measurement": "inhibition", "setting": "at 26.34 µM", "value": 99.5, "unit": "%"}]}
{"smiles": "COc1ccc2noc3c2c1C(=O)c1ccccc1-3", "values": [{"measurement": "inhibition", "setting": "at 6.28 µM", "value": 27.6, "unit": "%"}]}
{"smiles": "O=C(COC(=O)c1ccc([N+](=O)[O-])s1)NCc1ccc(F)cc1", "values": [{"measurement": "inhibition", "setting": "at 40.58 µM", "value": 70, "unit": "%"}]}
{"smiles": "Nc1cc2c(cc1Br)[nH]c(=O)c1ccccc12", "values": [{"measurement": "inhibition", "setting": "at 4.57 µM", "value": "4.29% (inactive)"}]}
{"smiles": "O=C1Cc2ccccc2C(=O)N1", "values": [{"measurement": "inhibition", "setting": "at 0.6 µM", "value": 39.2, "unit": "%"}]}
{"smiles": "CCc1cc[n+](C2=C(NS(=O)(=O)c3cccs3)C(=O)c3ccccc3C2=O)cc1", "values": [{"measurement": "inhibition", "setting": "at 14.16 µM", "value": 50.9, "unit": "%"}]}
{"smiles": "O=C(c1ccco1)[C@@H]1[C@@H]2C(=O)N(c3ccc(Br)cc3)C(=O)[C@@H]2C2c3ccccc3C=CN21", "note": "(stereo partly specified)", "values": [{"measurement": "inhibition", "setting": "at 11.01 µM", "value": 59.9, "unit": "%"}]}
{"smiles": "COC1=C(N)C(=O)c2nc(C)ccc2C1=O", "values": [{"measurement": "inhibition", "setting": "at 4.98 µM", "value": 53.1, "unit": "%"}]}
{"smiles": "COc1cc(Br)c(C(=O)c2nccc3cc(OC)c(OC)cc23)cc1OC", "values": [{"measurement": "inhibition", "setting": "at 1.13 µM", "value": 21, "unit": "%"}]}
{"smiles": "Cc1c(Cl)cnc(NC(=O)COC(=O)c2ccc([N+](=O)[O-])s2)c1Cl", "values": [{"measurement": "inhibition", "setting": "at 20.44 µM", "value": 76.2, "unit": "%"}]}
{"smiles": "O=C1Cc2ccccc2C(=O)N1Cc1ccccc1", "values": [{"measurement": "inhibition", "setting": "at 1.31 µM", "value": 37.1, "unit": "%"}]}
{"smiles": "COc1cc(NC(=O)COC(=O)c2ccc([N+](=O)[O-])s2)cc(OC)c1OC", "values": [{"measurement": "inhibition", "setting": "at 21.72 µM", "value": 82.2, "unit": "%"}]}
{"smiles": "O=C1C=C(Nc2ccccc2)c2ccccc2C1=O", "values": [{"measurement": "inhibition", "setting": "at 15.55 µM", "value": 89.1, "unit": "%"}]}
{"smiles": "CC1CCCC(NC(=O)COC(=O)c2ccc([N+](=O)[O-])s2)C1C", "note": "(stereo unspecified)", "values": [{"measurement": "inhibition", "setting": "at 31.32 µM", "value": 43.6, "unit": "%"}]}
{"smiles": "Cc1ccc(N2C(=O)[C@@H]3[C@H](C2=O)C2c4ccccc4C=CN2[C@@H]3C(=O)c2ccco2)cc1", "note": "(stereo partly specified)", "values": [{"measurement": "inhibition", "setting": "at 5.2 µM", "value": 31.4, "unit": "%"}]}
{"smiles": "CCn1nc(/C=C/c2ccccc2)nc2c(=O)n(C)c(=O)nc1-2", "values": [{"measurement": "inhibition", "setting": "at 0.49 µM", "value": 96.1, "unit": "%"}]}
